US7074789B2, “Kinase inhibitors” (Amgen Inc., priority 1999, dated 2006)

What was measured:
Format in all cases: biochemical
Tek = target: T1, Tek (Homo sapiens, UniProt Q02763); experiment: Kinase inhibition assay (33P transfer), Tek; conditions: read-out: Tek-1
T1 construct: Kinases are expressed as either kinase domains or full length constructs; made in house
Procedure, shortened: (§1)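 Activity read as 33P incorporation from ATP into poly(Glu,Tyr) 4:1 or poly(Arg,Ser) 3:1 substrate bound to microtiter plates, measured by scintillation after acid washing. Enzymes were affinity-purified GST or polyHis fusions (kinase domain or full length) from E. coli or baculovirus; IC50 = 50% reduction in labelled phosphate.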

Kdr = target: T2, Kdr (Homo sapiens, UniProt P35968); experiment: Kinase inhibition assay (33P transfer), Kdr; conditions: Table 3; read-out: KDR-1
T2 construct: Kinases are expressed as either kinase domains or full length constructs; made in house
Procedure, shortened: (§2)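 Each kinase, expressed as a GST- or polyHis-tagged domain or full-length protein, phosphorylated plate-attached poly(Glu,Tyr) 4:1 or poly(Arg,Ser) 3:1 using 33P-ATP. Bound radioactivity was measured by scintillation after a 0.5% phosphoric acid wash.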

Itk = target: T3, Itk (Homo sapiens, UniProt Q08881); experiment: Kinase inhibition assay (33P transfer), Itk; conditions: Table 3; read-out: Itk-1
T3 construct: Kinases are expressed as either kinase domains or full length constructs; made in house
T3 sequence (Q08881 1-620): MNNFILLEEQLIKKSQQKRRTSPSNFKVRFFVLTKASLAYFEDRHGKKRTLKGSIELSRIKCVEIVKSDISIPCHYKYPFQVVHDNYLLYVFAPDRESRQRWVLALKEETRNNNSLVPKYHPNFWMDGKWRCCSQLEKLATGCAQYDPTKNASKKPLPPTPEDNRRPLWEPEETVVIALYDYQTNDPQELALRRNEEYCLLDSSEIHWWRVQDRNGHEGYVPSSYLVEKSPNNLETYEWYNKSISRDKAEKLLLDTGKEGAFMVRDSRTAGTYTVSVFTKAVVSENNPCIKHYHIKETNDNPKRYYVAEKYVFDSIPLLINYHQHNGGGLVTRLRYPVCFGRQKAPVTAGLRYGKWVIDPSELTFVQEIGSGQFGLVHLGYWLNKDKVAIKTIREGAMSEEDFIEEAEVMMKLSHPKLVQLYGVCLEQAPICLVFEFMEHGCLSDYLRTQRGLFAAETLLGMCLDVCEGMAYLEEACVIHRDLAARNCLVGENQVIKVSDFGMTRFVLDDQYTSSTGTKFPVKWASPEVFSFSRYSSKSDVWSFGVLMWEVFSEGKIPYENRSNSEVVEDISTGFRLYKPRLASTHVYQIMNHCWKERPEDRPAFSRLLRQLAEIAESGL
Procedure, shortened: as §1

Lck = target: T4, Lck (Homo sapiens, UniProt P06239); experiment: Kinase inhibition assay (33P transfer), Lck; conditions: Table 3; read-out: Lck-1
T4 construct: Kinases are expressed as either kinase domains or full length constructs; made in house
Procedure, shortened: as §2

Hck-1 = target: T5, Hck-1 (Homo sapiens, UniProt P08631); experiment: Kinase inhibition assay (33P transfer), Hck; conditions: Table 6, Hck-1 kinase inhibition class
T5 construct: Kinases are expressed as either kinase domains or full length constructs; made in house

Fyn = target: T6, Fyn (Homo sapiens, UniProt P06241); experiment: Kinase inhibition assay (33P transfer), Fyn; conditions: read-out: Fyn-1
T6 construct: Kinases are expressed as either kinase domains or full length constructs; made in house
Procedure, shortened: as §1

PDGFRB = target: T7, PDGFRB (Homo sapiens, UniProt P09619); experiment: Kinase inhibition assay (33P transfer), PDGFRB; conditions: read-out: PDGFRB-1
T7 construct: Kinases are expressed as either kinase domains or full length constructs; made in house

EGFR = target: T8, EGFR (Homo sapiens, UniProt P00533); experiment: Kinase inhibition assay (33P transfer), EGFR; conditions: Table 2, kinase inhibition class; read-out: EGFR-1
T8 construct: Kinases are expressed as either kinase domains or full length constructs; made in house
Procedure, shortened: as §1

Zap-70 = target: T9, Zap-70 (Homo sapiens, UniProt P43403); experiment: Kinase inhibition assay (33P transfer), Zap-70; conditions: Table 3; read-out: Zap-1
T9 construct: Kinases are expressed as either kinase domains or full length constructs; made in house
T9 sequence (P43403 1-619): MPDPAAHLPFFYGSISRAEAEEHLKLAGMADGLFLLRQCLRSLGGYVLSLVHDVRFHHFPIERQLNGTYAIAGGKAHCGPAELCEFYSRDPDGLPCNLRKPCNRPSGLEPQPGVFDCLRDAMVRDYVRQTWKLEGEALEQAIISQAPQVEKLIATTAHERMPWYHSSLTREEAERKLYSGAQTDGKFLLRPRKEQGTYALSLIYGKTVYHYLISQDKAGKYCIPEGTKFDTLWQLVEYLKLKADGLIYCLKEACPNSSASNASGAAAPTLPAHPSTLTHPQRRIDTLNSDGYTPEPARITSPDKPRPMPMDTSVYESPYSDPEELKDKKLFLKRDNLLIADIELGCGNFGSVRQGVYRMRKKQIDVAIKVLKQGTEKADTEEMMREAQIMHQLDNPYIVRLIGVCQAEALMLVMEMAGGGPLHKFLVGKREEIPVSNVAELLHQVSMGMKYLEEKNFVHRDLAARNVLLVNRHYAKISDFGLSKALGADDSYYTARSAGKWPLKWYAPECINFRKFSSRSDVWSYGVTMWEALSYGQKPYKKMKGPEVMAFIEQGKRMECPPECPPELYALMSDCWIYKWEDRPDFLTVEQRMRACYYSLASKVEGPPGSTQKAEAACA
Procedure, shortened: as §2

Src = target: T10, Src (Homo sapiens, UniProt P12931); experiment: Kinase inhibition assay (33P transfer), Src; conditions: Table 6, Src-1 kinase inhibition class
T10 construct: Kinases are expressed as either kinase domains or full length constructs; made in house
Procedure, shortened: as §1

Flt-1 = target: T11, Flt-1 (Homo sapiens, UniProt P17948); experiment: Kinase inhibition assay (33P transfer), Flt-1
T11 construct: Kinases are expressed as either kinase domains or full length constructs; made in house
Procedure, shortened: as §1

FGFR1 = target: T12, FGFR1 (Homo sapiens, UniProt P11362); experiment: Kinase inhibition assay (33P transfer), FGFR1; conditions: read-out: FGFR1-1
T12 construct: Kinases are expressed as either kinase domains or full length constructs; made in house

Measured: IC50

T12 sequence (P11362 22-822, species assumed): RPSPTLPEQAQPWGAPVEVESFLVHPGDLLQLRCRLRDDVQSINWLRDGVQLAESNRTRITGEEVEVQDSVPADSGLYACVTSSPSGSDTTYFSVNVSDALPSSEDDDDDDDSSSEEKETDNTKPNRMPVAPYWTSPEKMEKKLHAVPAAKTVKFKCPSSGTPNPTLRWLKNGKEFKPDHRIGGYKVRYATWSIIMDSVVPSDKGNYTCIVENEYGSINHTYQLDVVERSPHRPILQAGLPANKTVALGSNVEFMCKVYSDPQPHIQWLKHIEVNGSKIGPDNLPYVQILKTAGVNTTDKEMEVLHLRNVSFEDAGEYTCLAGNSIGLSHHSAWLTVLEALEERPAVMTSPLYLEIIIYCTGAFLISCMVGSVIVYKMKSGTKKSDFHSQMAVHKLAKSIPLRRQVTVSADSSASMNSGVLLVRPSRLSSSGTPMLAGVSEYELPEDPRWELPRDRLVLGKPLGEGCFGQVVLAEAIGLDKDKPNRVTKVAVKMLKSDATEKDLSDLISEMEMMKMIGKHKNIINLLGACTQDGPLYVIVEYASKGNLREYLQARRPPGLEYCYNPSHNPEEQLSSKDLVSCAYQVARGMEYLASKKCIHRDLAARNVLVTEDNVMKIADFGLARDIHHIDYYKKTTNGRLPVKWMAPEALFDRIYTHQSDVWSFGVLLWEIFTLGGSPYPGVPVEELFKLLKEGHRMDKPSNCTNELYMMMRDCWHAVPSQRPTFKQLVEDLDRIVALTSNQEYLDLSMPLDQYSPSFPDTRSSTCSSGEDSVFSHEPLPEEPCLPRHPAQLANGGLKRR
T10 sequence (P12931 whole entry, species assumed, the tested form may be a part): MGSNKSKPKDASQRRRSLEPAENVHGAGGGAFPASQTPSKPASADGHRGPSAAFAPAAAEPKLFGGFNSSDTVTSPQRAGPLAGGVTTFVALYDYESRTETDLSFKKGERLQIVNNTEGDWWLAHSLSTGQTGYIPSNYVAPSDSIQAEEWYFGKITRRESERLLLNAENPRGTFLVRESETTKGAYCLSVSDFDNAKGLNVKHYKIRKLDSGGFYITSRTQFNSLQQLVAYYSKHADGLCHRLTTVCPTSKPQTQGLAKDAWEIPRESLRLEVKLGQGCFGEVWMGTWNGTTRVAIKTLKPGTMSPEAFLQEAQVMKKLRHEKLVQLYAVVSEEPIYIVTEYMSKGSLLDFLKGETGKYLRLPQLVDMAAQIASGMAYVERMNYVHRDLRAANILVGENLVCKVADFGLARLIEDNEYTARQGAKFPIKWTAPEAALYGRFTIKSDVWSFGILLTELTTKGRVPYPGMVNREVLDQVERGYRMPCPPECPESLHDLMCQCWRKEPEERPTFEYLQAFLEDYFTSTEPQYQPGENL
T6 sequence (P06241 whole entry, species assumed, the tested form may be a part): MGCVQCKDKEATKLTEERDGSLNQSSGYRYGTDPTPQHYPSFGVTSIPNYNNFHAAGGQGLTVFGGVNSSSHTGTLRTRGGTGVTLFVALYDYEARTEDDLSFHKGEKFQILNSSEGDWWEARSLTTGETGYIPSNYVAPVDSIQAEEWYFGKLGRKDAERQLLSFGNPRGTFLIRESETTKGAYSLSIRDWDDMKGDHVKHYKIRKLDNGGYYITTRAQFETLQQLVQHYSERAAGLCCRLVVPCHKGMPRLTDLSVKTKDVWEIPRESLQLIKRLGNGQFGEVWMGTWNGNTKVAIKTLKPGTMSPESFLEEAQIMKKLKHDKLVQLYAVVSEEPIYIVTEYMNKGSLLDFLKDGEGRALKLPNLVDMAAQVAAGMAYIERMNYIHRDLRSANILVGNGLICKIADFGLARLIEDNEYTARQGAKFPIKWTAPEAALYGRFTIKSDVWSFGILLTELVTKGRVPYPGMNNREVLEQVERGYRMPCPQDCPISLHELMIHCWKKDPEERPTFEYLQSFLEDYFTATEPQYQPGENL
T2 sequence (P35968 20-1356, species assumed): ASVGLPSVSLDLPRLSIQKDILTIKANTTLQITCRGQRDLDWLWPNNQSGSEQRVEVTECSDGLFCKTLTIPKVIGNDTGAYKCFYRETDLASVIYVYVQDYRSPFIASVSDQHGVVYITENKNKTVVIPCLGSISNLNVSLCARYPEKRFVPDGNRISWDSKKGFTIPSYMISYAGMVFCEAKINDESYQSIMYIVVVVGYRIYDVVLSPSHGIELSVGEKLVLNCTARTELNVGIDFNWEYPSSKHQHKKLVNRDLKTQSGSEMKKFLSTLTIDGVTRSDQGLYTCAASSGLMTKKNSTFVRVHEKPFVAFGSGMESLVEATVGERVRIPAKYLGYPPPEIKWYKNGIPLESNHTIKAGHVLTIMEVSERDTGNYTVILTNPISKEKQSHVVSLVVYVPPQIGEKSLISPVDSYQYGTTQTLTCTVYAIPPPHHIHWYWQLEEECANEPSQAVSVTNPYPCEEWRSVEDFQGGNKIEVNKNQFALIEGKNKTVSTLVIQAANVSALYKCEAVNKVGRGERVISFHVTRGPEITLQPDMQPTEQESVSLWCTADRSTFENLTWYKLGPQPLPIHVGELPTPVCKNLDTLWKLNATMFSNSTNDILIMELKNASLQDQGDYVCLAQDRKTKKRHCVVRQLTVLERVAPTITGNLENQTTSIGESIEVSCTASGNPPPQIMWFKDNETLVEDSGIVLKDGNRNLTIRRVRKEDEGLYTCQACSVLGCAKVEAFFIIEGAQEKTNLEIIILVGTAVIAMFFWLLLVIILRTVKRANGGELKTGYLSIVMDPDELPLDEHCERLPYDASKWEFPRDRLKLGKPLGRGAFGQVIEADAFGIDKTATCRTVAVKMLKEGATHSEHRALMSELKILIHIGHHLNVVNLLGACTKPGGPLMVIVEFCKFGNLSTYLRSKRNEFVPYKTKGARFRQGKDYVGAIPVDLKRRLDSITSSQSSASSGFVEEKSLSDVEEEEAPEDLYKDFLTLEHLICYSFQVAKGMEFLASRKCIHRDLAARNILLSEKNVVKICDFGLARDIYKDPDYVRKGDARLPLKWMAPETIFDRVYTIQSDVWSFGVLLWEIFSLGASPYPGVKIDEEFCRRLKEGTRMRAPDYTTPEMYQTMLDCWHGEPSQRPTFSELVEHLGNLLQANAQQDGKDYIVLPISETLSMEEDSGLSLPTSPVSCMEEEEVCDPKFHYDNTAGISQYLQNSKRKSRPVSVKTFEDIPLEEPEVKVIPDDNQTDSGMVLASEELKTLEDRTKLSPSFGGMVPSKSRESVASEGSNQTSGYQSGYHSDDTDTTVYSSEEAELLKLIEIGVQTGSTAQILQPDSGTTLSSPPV
T1 sequence (Q02763 23-1124, species assumed): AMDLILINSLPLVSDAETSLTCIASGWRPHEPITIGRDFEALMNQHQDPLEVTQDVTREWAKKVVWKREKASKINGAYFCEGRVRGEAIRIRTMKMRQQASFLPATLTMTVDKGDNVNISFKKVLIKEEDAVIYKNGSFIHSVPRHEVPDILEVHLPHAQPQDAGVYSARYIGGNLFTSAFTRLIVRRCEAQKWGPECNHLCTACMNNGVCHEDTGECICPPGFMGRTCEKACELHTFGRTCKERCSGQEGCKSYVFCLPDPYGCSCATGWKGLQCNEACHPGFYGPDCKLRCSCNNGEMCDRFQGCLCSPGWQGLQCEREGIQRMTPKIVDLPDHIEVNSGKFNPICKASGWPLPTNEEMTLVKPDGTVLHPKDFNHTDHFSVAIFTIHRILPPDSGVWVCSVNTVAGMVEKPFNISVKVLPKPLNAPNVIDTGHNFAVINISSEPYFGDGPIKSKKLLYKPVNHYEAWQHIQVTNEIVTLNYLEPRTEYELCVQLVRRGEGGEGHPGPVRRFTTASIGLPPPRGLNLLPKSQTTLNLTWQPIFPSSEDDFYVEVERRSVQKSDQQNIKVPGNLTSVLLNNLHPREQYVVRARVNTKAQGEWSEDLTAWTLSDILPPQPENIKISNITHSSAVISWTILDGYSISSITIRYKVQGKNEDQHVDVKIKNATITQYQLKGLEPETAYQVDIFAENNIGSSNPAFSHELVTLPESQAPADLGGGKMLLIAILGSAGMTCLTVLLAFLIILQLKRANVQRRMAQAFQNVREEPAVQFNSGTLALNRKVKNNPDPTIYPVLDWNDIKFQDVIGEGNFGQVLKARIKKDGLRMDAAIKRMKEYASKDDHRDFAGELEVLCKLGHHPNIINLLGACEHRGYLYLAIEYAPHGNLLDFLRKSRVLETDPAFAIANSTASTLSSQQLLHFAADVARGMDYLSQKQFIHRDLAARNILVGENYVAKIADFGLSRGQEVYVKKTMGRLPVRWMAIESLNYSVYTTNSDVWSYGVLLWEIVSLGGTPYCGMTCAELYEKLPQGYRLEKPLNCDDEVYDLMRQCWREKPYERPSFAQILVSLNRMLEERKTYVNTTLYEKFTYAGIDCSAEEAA
T5 sequence (P08631 whole entry, the tested form may be a part): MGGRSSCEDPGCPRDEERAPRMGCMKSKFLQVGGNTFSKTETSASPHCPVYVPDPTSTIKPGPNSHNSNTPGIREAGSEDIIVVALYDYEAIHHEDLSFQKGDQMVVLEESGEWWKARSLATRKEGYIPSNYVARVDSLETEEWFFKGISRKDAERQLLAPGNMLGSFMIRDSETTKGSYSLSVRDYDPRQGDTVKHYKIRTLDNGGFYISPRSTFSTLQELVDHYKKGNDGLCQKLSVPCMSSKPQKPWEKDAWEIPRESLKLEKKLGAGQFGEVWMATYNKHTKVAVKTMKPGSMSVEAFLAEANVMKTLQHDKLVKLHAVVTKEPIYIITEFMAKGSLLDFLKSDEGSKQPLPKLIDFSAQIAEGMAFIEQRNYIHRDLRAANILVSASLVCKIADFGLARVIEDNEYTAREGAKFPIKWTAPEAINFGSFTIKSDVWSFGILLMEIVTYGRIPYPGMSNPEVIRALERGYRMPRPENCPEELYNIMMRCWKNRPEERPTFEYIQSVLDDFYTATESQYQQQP

COc1cc(Nc2ncnc(Nc3cnc4ccccc4c3)n2)cc(OC)c1OC [Compound 99]
0.989 to 5.93 µM: Lck | Fyn | PDGFRB | EGFR | Src | Flt-1 | FGFR1
> 11.1 µM: Tek | Itk | Zap-70
8.65 to 11.1 µM: Hck-1
< 0.989 µM: Kdr

COc1cc(Nc2ncnc(Nc3cc(-c4ccccc4)n[nH]3)n2)cc(OC)c1OC [Compound 102]
5.72 to 8.34 µM: Tek | Hck-1 | PDGFRB
0.954 to 5.72 µM: Itk | EGFR | FGFR1
> 10.7 µM: Zap-70
< 0.954 µM: Kdr | Lck | Fyn | Src | Flt-1

COc1cc(Nc2ncnc(-c3ccnc(NCCCO)c3)n2)cc(OC)c1OC [Compound 180]
5.82 to 8.49 µM: Fyn
0.97 to 5.82 µM: Kdr | Lck
8.49 to 10.9 µM: PDGFRB
> 10.9 µM: Tek | Itk | Hck-1 | EGFR | Zap-70 | Src | Flt-1 | FGFR1

COc1cc(Nc2ncnc(-n3c(N)nc4ccccc43)n2)cc(OC)c1OC [Compound 289]
< 1.02 µM: Kdr | Lck | PDGFRB | Flt-1 | FGFR1
1.02 to 6.1 µM: Tek | Itk | Fyn | Src
> 11.4 µM: Hck-1 | EGFR | Zap-70

NC(=O)c1ccc(Nc2ncnc(Nc3cc(-c4ccco4)n[nH]3)n2)cc1 [Compound 341]
> 12.4 µM: Tek | Hck-1 | Fyn | Zap-70 | Src
< 1.1 µM: Kdr | PDGFRB | Flt-1 | FGFR1
6.62 to 9.66 µM: Itk | Lck | EGFR

COC(=O)c1cccc(Nc2ncnc(Nc3cc(-c4ccco4)n[nH]3)n2)c1 [Compound 344]
1.06 to 6.36 µM: Lck
6.36 to 9.27 µM: PDGFRB | Flt-1
> 11.9 µM: Tek | Itk | Hck-1 | Fyn | EGFR | Zap-70 | Src
< 1.06 µM: Kdr | FGFR1

COc1cc(Nc2ncnc(-n3cc(CC(N)=O)c4ccccc43)n2)cc(OC)c1OC [Compound 353]
< 0.921 µM: Kdr | PDGFRB | Flt-1
> 10.4 µM: Tek | Hck-1 | EGFR | Zap-70 | Src
0.921 to 5.52 µM: Itk | FGFR1
8.06 to 10.4 µM: Lck | Fyn

O=C1OCc2ccc(Nc3ncnc(Nc4cc(-c5ccco5)n[nH]4)n3)cc21 [Compound 364]
6.39 to 9.32 µM: Itk | Lck | PDGFRB
> 12 µM: Tek | Hck-1 | Fyn | Zap-70 | Src
1.07 to 6.39 µM: EGFR | Flt-1 | FGFR1
< 1.07 µM: Kdr
